In PubChem BioAssay AID248 (DTP/NCI, 2004):
Several values for one entry are separate records, joined by “and”; a condition that tells them apart may be missing. Equal entries are not always repeated. Inconclusive results and toxic doses are left out.

Tested on: L1210 leukemia ip in BDF1 mice, survival T/C
Assay: NCI In Vivo Anticancer Drug Screen. Data for tumor model L1210 Leukemia (intraperitoneal) in B6D2F1 (BDF1) mice
Conditions: higher = longer survival
Summary of the method: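 Tumor cells were implanted, animals were treated, and survival was followed. The result divides the treated measurement by the vehicle-control measurement.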

[1] = endpoint: mean survival time, dose: 100.0 mg/kg/injection, schedule: Q01DX009 (ip), vehicle: Klucel (hydroxypropylcellulose) (HPC)
[2] = endpoint: mean survival time, dose: 200.0 mg/kg/injection, schedule: Q01DX009 (ip), vehicle: Klucel (hydroxypropylcellulose) (HPC)
[3] = endpoint: mean survival time, dose: 400.0 mg/kg/injection, schedule: Q04DX002 (ip), vehicle: Klucel (hydroxypropylcellulose) (HPC)
[4] = endpoint: mean survival time, dose: 100.0 mg/kg/injection, schedule: Q01DX001 (ip), vehicle: saline
[5] = endpoint: mean survival time, dose: 200.0 mg/kg/injection, schedule: Q01DX001 (ip), vehicle: saline
[6] = endpoint: mean survival time, dose: 100.0 mg/kg/injection, schedule: Q04DX003 (ip), vehicle: saline
[7] = endpoint: mean survival time, dose: 200.0 mg/kg/injection, schedule: Q04DX003 (ip), vehicle: saline
[8] = endpoint: mean survival time, dose: 100.0 mg/kg/injection, schedule: Q04DX003 (ip), vehicle: Klucel (hydroxypropylcellulose) (HPC)
[9] = endpoint: mean survival time, dose: 200.0 mg/kg/injection, schedule: Q04DX003 (ip), vehicle: Klucel (hydroxypropylcellulose) (HPC)
[10] = endpoint: mean survival time, dose: 400.0 mg/kg/injection, schedule: Q04DX003 (ip), vehicle: Klucel (hydroxypropylcellulose) (HPC)
[11] = endpoint: mean survival time, dose: 100.0 mg/kg/injection, schedule: Q01DX009 (ip), vehicle: saline with Tween-80
[12] = endpoint: mean survival time, dose: 200.0 mg/kg/injection, schedule: Q01DX009 (ip), vehicle: saline with Tween-80
[13] = endpoint: mean survival time, dose: 200.0 mg/kg/injection, schedule: Q04DX003 (ip), vehicle: saline with Tween-80
[14] = endpoint: mean survival time, dose: 400.0 mg/kg/injection, schedule: Q04DX003 (ip), vehicle: saline with Tween-80
[15] = endpoint: mean survival time, dose: 400.0 mg/kg/injection, schedule: Q01DX009 (ip), vehicle: saline with Tween-80

For N=c1nc2n(cc1F)[C@@H]1O[C@H](CO)[C@@H](O)[C@@H]1O2, the T/C [1] was 187 % of control, the T/C [2] was 177 % of control and the T/C (endpoint: mean survival time, dose: 400.0 mg/kg/injection, schedule: Q01DX001 (ip), vehicle: Klucel (hydroxypropylcellulose) (HPC)) was 113 % of control. For the same compound, the T/C [3] was 165 % of control and 173 % of control, the T/C (endpoint: mean survival time, dose: 600.0 mg/kg/injection, schedule: Q04DX002 (ip), vehicle: Klucel (hydroxypropylcellulose) (HPC)) was 180 % of control and the T/C (endpoint: mean survival time, dose: 800.0 mg/kg/injection, schedule: Q01DX001 (ip), vehicle: Klucel (hydroxypropylcellulose) (HPC)) was 116 % of control. The T/C (endpoint: mean survival time, dose: 2000.0 mg/kg/injection, schedule: Q01DX001 (ip), vehicle: Klucel (hydroxypropylcellulose) (HPC)) was 123 % of control, the T/C (endpoint: mean survival time, dose: 2000.0 mg/kg/injection, schedule: Q01DX001 (ip), vehicle: saline) was 152 % of control and the T/C (endpoint: median survival time, dose: 25.0 mg/kg/injection, schedule: Q03HX024 (ip), vehicle: water) was 255 % of control. The T/C (endpoint: median survival time, dose: 50.0 mg/kg/injection, schedule: Q01DX009 (ip), vehicle: steriod suspending solution) was 175 % of control, the T/C (endpoint: median survival time, dose: 50.0 mg/kg/injection, schedule: Q03HX024 (ip), vehicle: water) was 610 % of control and the T/C (endpoint: median survival time, dose: 100.0 mg/kg/injection, schedule: Q01DX009 (ip), vehicle: steriod suspending solution) was 180 % of control. For the same compound, the T/C (endpoint: median survival time, dose: 100.0 mg/kg/injection, schedule: Q01DX009 (ip), vehicle: water) was 190 % of control, the T/C (endpoint: median survival time, dose: 100.0 mg/kg/injection, schedule: Q03HX024 (ip), vehicle: water) was 390 % of control and the T/C (endpoint: median survival time, dose: 200.0 mg/kg/injection, schedule: Q01DX009 (ip), vehicle: steriod suspending solution) was 205 % of control. The T/C (endpoint: median survival time, dose: 200.0 mg/kg/injection, schedule: Q01DX009 (ip), vehicle: water) was 240 % of control, the T/C (endpoint: median survival time, dose: 400.0 mg/kg/injection, schedule: Q01DX001 (oral), vehicle: water) was 120 % of control and the T/C (endpoint: median survival time, dose: 400.0 mg/kg/injection, schedule: Q01DX009 (ip), vehicle: steriod suspending solution) was 340 % of control. The T/C (endpoint: median survival time, dose: 400.0 mg/kg/injection, schedule: Q01DX009 (ip), vehicle: water) was 450 % of control and the T/C (endpoint: median survival time, dose: 800.0 mg/kg/injection, schedule: Q01DX001 (ip), vehicle: water) was 150 % of control.
With CCCCNP(=S)(NCCCC)c1ccccc1 the T/C [4] was 98 % of control, the T/C [5] was 93 % of control and the T/C (endpoint: mean survival time, dose: 400.0 mg/kg/injection, schedule: Q01DX001 (ip), vehicle: saline) was 95 % of control.
c1ccc2sc(SSN3CCOCC3)nc2c1 was tested, and the T/C (endpoint: mean survival time, dose: 50.0 mg/kg/injection, schedule: Q01DX009 (ip), vehicle: Klucel (hydroxypropylcellulose) (HPC)) was 97 % of control, the T/C [1] was 113 % of control and the T/C [6] was 101 % of control. The T/C [2] was 91 % of control and the T/C [7] was 92 % of control.
In the case of CCCCCCN(CCCCCC)C(F)(F)C(=O)Nc1ccc(S(=O)(=O)c2ccc(NC(=O)C(F)(F)N(CCCCCC)CCCCCC)cc2)cc1, the T/C (endpoint: mean survival time, dose: 12.5 mg/kg/injection, schedule: Q01DX001 (ip), vehicle: saline) is reported as 105 % of control, the T/C (endpoint: mean survival time, dose: 25.0 mg/kg/injection, schedule: Q01DX001 (ip), vehicle: saline) is reported as 100 % of control and the T/C (endpoint: mean survival time, dose: 50.0 mg/kg/injection, schedule: Q01DX001 (ip), vehicle: saline) is reported as 107 % of control.
For O=C(O)c1cc(=O)c(O)c2c(O)c(O)c(O)cc2c1, the T/C [4] was 103 % of control and the T/C [5] was 91 % of control.
In the case of CN(C)C(=O)c1cc[n+](Cc2ccc(Cl)cc2)cc1, the T/C [6] is reported as 98 % of control.
For OC(C=S)CS (stereo not drawn), the T/C (endpoint: mean survival time, dose: 100.0 mg/kg/injection, schedule: Q04DX002 (ip), vehicle: saline with Tween-80) was 95 % of control, the T/C (endpoint: mean survival time, dose: 200.0 mg/kg/injection, schedule: Q04DX002 (ip), vehicle: saline with Tween-80) was 92 % of control and the T/C (endpoint: mean survival time, dose: 400.0 mg/kg/injection, schedule: Q04DX002 (ip), vehicle: saline with Tween-80) was 95 % of control.
For CNC(=O)Oc1ccc([N+](=O)[O-])cc1, the T/C (endpoint: mean survival time, dose: 75.0 mg/kg/injection, schedule: Q01DX001 (ip), vehicle: other) was 101 % of control, the T/C (endpoint: mean survival time, dose: 150.0 mg/kg/injection, schedule: Q01DX001 (ip), vehicle: other) was 101 % of control and the T/C (endpoint: mean survival time, dose: 300.0 mg/kg/injection, schedule: Q01DX001 (ip), vehicle: other) was 104 % of control.
For CC(=O)OC(C1SCCCS1)C1CC2C=CC1C2 (stereo not drawn), the T/C (endpoint: mean survival time, dose: 100.0 mg/kg/injection, schedule: Q04DX002 (ip), vehicle: Klucel (hydroxypropylcellulose) (HPC)) was 115 % of control, the T/C (endpoint: mean survival time, dose: 200.0 mg/kg/injection, schedule: Q04DX002 (ip), vehicle: Klucel (hydroxypropylcellulose) (HPC)) was 91 % of control and the T/C [3] was 105 % of control.
With CSc1ncnc2c1ncn2/N=C/C1OC(C)OCC1O (stereo not drawn) the T/C [8] was 93 % of control, the T/C [9] was 98 % of control and the T/C [10] was 98 % of control.
For CCN(CC)C(=O)CN, the T/C [6] was 103 % of control, the T/C [7] was 100 % of control and the T/C (endpoint: mean survival time, dose: 400.0 mg/kg/injection, schedule: Q04DX003 (ip), vehicle: saline) was 103 % of control.
CCOC(=O)c1cnn(C(N)=O)c1N was tested, and the T/C [11] was 108 % of control and the T/C [12] was 96 % of control.
With CN=C(NC)c1ccc(NC(=O)c2ccc(C(=O)Nc3ccc(C(=NC)NC)cc3)cc2)cc1 the T/C (endpoint: mean survival time, dose: 0.23 mg/kg/injection, schedule: Q01DX Z (ip), vehicle: methylcellulose (MC)) was 96 % of control and 124 % of control, the T/C (endpoint: mean survival time, dose: 0.9 mg/kg/injection, schedule: Q01DX Z (ip), vehicle: methylcellulose (MC)) was 110 % of control and 177 % of control and 205 % of control and the T/C (endpoint: mean survival time, dose: 1.87 mg/kg/injection, schedule: Q01DX Z (ip), vehicle: methylcellulose (MC)) was 150 % of control. The T/C (endpoint: mean survival time, dose: 1.9 mg/kg/injection, schedule: Q01DX Z (ip), vehicle: methylcellulose (MC)) was 124 % of control, the T/C (endpoint: mean survival time, dose: 3.75 mg/kg/injection, schedule: Q01DX Z (ip), vehicle: methylcellulose (MC)) was 161 % of control and the T/C (endpoint: mean survival time, dose: 7.5 mg/kg/injection, schedule: Q01DX Z (ip), vehicle: methylcellulose (MC)) was 160 % of control. For the same compound, the T/C (endpoint: mean survival time, dose: 15.0 mg/kg/injection, schedule: Q01DX Z (ip), vehicle: methylcellulose (MC)) was 124 % of control, the T/C (endpoint: mean survival time, dose: 15.0 mg/kg/injection, schedule: Q01DX Z (oral), vehicle: carboxymethylcellulose (CMC)) was 111 % of control and the T/C (endpoint: mean survival time, dose: 30.0 mg/kg/injection, schedule: Q01DX Z (ip), vehicle: methylcellulose (MC)) was 108 % of control. For the same compound, the T/C (endpoint: mean survival time, dose: 30.0 mg/kg/injection, schedule: Q01DX Z (oral), vehicle: carboxymethylcellulose (CMC)) was 102 % of control, the T/C (endpoint: mean survival time, dose: 60.0 mg/kg/injection, schedule: Q01DX Z (oral), vehicle: carboxymethylcellulose (CMC)) was 107 % of control and the T/C (endpoint: mean survival time, dose: 120.0 mg/kg/injection, schedule: Q01DX Z (oral), vehicle: carboxymethylcellulose (CMC)) was 96 % of control. The T/C (endpoint: mean survival time, dose: 240.0 mg/kg/injection, schedule: Q01DX Z (oral), vehicle: carboxymethylcellulose (CMC)) was 115 % of control and the T/C (endpoint: mean survival time, dose: 480.0 mg/kg/injection, schedule: Q01DX Z (oral), vehicle: carboxymethylcellulose (CMC)) was 113 % of control.
In the case of Cc1ccc(S(=O)(=O)N(CCCc2c(C)nc(N)nc2Nc2ccccc2)c2ccccc2)cc1, the T/C (endpoint: mean survival time, dose: 25.0 mg/kg/injection, schedule: Q01DX001 (ip), vehicle: saline with Tween-80) is reported as 108 % of control, the T/C (endpoint: mean survival time, dose: 50.0 mg/kg/injection, schedule: Q01DX001 (ip), vehicle: saline with Tween-80) is reported as 92 % of control and the T/C (endpoint: mean survival time, dose: 100.0 mg/kg/injection, schedule: Q01DX001 (ip), vehicle: saline with Tween-80) is reported as 93 % of control.
Cc1cccc(C(C)(C)C)c1O was tested, and the T/C (endpoint: mean survival time, dose: 100.0 mg/kg/injection, schedule: Q04DX003 (ip), vehicle: saline with Tween-80) was 102 % of control, the T/C [13] was 91 % of control and the T/C [14] was 94 % of control.
For CCCCCCCC(=O)C(C)C, the T/C [1] was 95 % of control, the T/C [8] was 99 % of control and the T/C [2] was 98 % of control. For the same compound, the T/C [9] was 100 % of control, the T/C (endpoint: mean survival time, dose: 400.0 mg/kg/injection, schedule: Q01DX009 (ip), vehicle: Klucel (hydroxypropylcellulose) (HPC)) was 102 % of control and the T/C [10] was 91 % of control.
In the case of COc1ccc(CCOS(=O)(=O)c2ccc(C)cc2)cc1, the T/C [11] is reported as 100 % of control, the T/C [12] is reported as 97 % of control and the T/C [15] is reported as 100 % of control.
In the case of CC(C)C1=CC2=CCC3C(C)(C(N)=O)CCCC3(C)C2CC1CC#N (stereo not drawn), the T/C [11] is reported as 93 % of control, the T/C [12] is reported as 93 % of control and the T/C [13] is reported as 91 % of control. The T/C [15] was 94 % of control and the T/C [14] was 93 % of control.
In the case of c1ccc(-c2cc[c]([Sn]([c]3ccccc3)([c]3ccccc3)[c]3ccccc3)cc2)cc1, the T/C (endpoint: mean survival time, dose: 100.0 mg/kg/injection, schedule: Q04DX002 (ip), vehicle: other) is reported as 103 % of control, the T/C (endpoint: mean survival time, dose: 200.0 mg/kg/injection, schedule: Q04DX002 (ip), vehicle: other) is reported as 107 % of control and the T/C (endpoint: mean survival time, dose: 400.0 mg/kg/injection, schedule: Q04DX002 (ip), vehicle: other) is reported as 96 % of control.
